Here are results for 27 compounds from patent US20180009797A1, “AZA-ARYL 1H-PYRAZOL-1-YL BENZENE SULFONAMIDES” (ChemoCentryx, Inc., priority 2016, published 2018).

The experiment concerns the target T1, CCR(9) (Homo sapiens, UniProt P51686).
T1 construct: CCR(9)-expressing cells such as T cell line MOLT-4 cells; host or cells: MOLT-4 T cell line
T1 sequence (P51686 1-369): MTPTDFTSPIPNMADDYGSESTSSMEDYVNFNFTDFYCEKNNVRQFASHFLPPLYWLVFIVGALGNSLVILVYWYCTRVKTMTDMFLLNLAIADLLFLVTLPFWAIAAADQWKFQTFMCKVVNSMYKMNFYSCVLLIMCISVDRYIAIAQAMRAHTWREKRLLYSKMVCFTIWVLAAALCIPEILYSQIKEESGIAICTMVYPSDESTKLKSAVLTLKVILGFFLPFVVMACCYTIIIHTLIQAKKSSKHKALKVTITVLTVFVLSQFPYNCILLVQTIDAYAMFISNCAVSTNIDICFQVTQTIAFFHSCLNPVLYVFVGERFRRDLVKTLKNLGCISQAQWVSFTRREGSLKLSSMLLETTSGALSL
The experiment in a line: calcium mobilization assay (FLIPR, MOLT-4 cells, hTECK). The class given is cell-based. To be noted: read-out: CCR(9) Ca^2+. On the procedure:
In calcium signaling assays used to determine the ability of a compound to interfere with binding between a chemokine receptor and a known chemokine ligand, chemokine receptor-expressing cells (CCR(9)-expressing cells such as T cell line MOLT-4 cells) are first incubated with a compound of interest, such as a potential chemokine antagonist, at increasing concentrations. The cell number can be from 10^5 to 5×10^6 cells per well in a 96-well microtiter plate. The concentration of the compound being tested may range from 0 to 100 μM. After a period of incubation (which can range from 5 to 60 minutes), the treated cells are placed in a Fluorometric Imaging Plate Reader (FLIPR®) (available from Molecular Devices Corp., Sunnyvale, Calif.) according to the manufacturer's instruction. The FLIPR® system is well known to those skilled in the art as a standard method of performing assays. The cells are then stimulated with an appropriate amount of the chemokine ligand (TECK for CCR(9)) at 5-100 nM final concentration, and the signal of intracellular calcium increase (also called calcium flux) is recorded. The efficacy of a compound as an inhibitor of binding between the chemokine and the ligand can be calculated as an IC50 (the concentration needed to cause 50% inhibition in signaling) or IC90 (at 90% inhibition).
MOLT-4 cells were obtained from the American Type Culture Collection (Manassas, Va.) and cultured in RPMI tissue culture medium supplemented with 10% fetal calf serum (FCS) in a humidified 5% CO2 incubator at 37° C. Recombinant human chemokine proteins TECK was obtained from R&D Systems (Minneapolis, Minn.). ChemoTX® chemotaxis microchambers were purchased from Neuro Probe (Gaithersburg, Md.). CyQUANT® cell proliferation kits were purchased from Molecular Probes (Eugene, Oreg.). Calcium indicator dye Fluo-4 AM was purchased from Molecular Devices (Mountain View, Calif.).
A cytoplasmic calcium mobilization assay was used to determine the efficacy of potential receptor antagonists at blocking the signals mediated through chemokine receptors, such as CCR(9). This assay was routinely performed using the Fluorescent Imaging Plate Reader (FLIPR, Molecular Devices). MOLT-4 cells were labeled with the fluorescent-indicator dye Fluo-4 (Molecular Devices) according to the manufacturer's directions. After labeling, the cells were collected by centrifugation (400×g for 5 min at room temperature) and resuspended in HBSS to a cell density of 2.5×10^6 cells/mL. Test compounds were prepared in 100% DMSO at 100× the final concentration; generally, a range of concentrations of each compound were tested, with final concentrations from 0.1 nM to 10,000 nM. Labeled cells (300 μL) were mixed with compound or an equal volume of DMSO (3 μL) in a 96-well plate; after thorough mixing, 50 μL of this cell/compound mixture was added to each of four wells of a 384-well FLIPR plate. The chemokine agonist (i.e., hTECK), prepared in HBSS at a 5× concentration of the previously determined EC^50 concentration, was added to each well and resulting changes in the fluorescent intensity, indicative of chemokine receptor-mediated signaling, were recorded on the FLIPR.

Structures are written as SMILES.

As for `Cc1cc(NS(=O)(=O)c2ccc(C(C)(C)C)cc2)n(-c2cc3ccccc3cn2)n1`, the IC50 was less than 100 nM. On to `Cc1cc(NS(=O)(=O)c2ccc3c(c2)CC(C)(C)O3)n(-c2cccc3ncccc23)n1`, for which the IC50 was less than 100 nM. As for `CC(C)Oc1ccc(S(=O)(=O)Nc2cc(C(C)(F)F)nn2-c2cccc3ncccc23)cc1`, the IC50 is less than 100 nM. Regarding `Cc1cc(NS(=O)(=O)c2ccc(C(C)(C)C)cc2)n(-c2ccc3ccccc3c2)n1`, the IC50 is less than 100 nM. The figure for `Cc1cc(NS(=O)(=O)c2ccc(C(C)(C)C)cc2)n(-c2ccc(N(C)C)c3ccccc23)n1` is less than 100 nM. The result for `Cc1cc(NS(=O)(=O)c2ccc(C(C)(C)C)cc2)n(-c2ccc3ccccc3n2)n1` reads 100 to 1000 nM; that for `Cc1cnc2c(Cl)ccc(-n3nc(C)cc3NS(=O)(=O)c3ccc(C(C)(C)C)cc3)c2c1`, less than 100 nM; that for `CC(C)(C)c1ccc(S(=O)(=O)Nc2cc(C3CC3)nn2-c2cccc3ncccc23)cc1`, less than 100 nM. The figure for `Cc1cc(NS(=O)(=O)c2ccc(OC(C)(C)C)cc2)n(-c2cccc3ncccc23)n1` is 100 to 1000 nM; for `Cc1cc(NS(=O)(=O)c2ccc(C(C)(C)C)cc2)n(Cc2cccc3cnccc23)n1` it is less than 100 nM; for `Cc1cc(NS(=O)(=O)c2ccc(C(C)(C)C)cc2)n(-c2cccc3cnncc23)n1` it is more than 1000 nM. Turning to `CC(C)(C)c1ccc(S(=O)(=O)Nc2cc(CO)nn2-c2cccc3ncccc23)cc1`, the IC50 was less than 100 nM. The result for `COc1cc(C(C)(C)C)ccc1S(=O)(=O)Nc1cc(C)nn1-c1cccc2ncccc12` reads less than 100 nM. The figure for `Cc1cc(NS(=O)(=O)c2ccc(C(C)(C)C)cc2)n(Cc2cccc3ncccc23)n1` is 100 to 1000 nM; for `CC(C)(C)c1ccc(S(=O)(=O)Nc2cc(C(N)=O)nn2-c2cccc3ncccc23)cc1` it is 100 to 1000 nM; for `CC(C)(C)c1ccc(S(=O)(=O)Nc2cc(CC#N)nn2-c2cccc3ncccc23)cc1` it is less than 100 nM.

`Cc1cc(NS(=O)(=O)c2ccc(C(C)(C)C)cc2C)n(-c2cccc3ncccc23)n1`: the IC50 lay within 100 to 1000 nM. The figure for `Cc1cc(NS(=O)(=O)c2ccc(C(C)(C)C)cc2)n(-c2ncnc3ccccc23)n1` is less than 100 nM; for `Cc1cc(NS(=O)(=O)c2ccc(N3CCOCC3)c(F)c2)n(-c2cccc3ncccc23)n1` it is less than 100 nM.

On to `CC(C)(C)c1ccc(S(=O)(=O)Nc2cc(C(F)(F)F)nn2-c2ncnc3ccccc23)cc1`, for which the IC50 is less than 100 nM. The result for `CC(C)c1cc(NS(=O)(=O)c2ccc(C(C)(C)C)cc2)n(-c2cccc3ncccc23)n1` reads 100 to 1000 nM; that for `CC(C)(C)c1ccc(S(=O)(=O)Nc2c3c(nn2-c2cccc4cnccc24)CCC3)cc1`, less than 100 nM; that for `Cc1cc(NS(=O)(=O)c2ccc(C(C)(C)C)cc2)n(-c2cccc3[nH]c(=O)ccc23)n1`, less than 100 nM.

Take `CC(C)(C)c1ccc(S(=O)(=O)Nc2cc(C(F)(F)F)nn2-c2cccc3cccnc23)cc1`: the IC50 is more than 1000 nM.

As for `CCOc1ccc(S(=O)(=O)Nc2cc(C)nn2-c2cccc3ncccc23)cc1`, the IC50 was less than 100 nM. The result for `Cc1cc(NS(=O)(=O)c2ccc(C(C)(C)C)cc2)n(-c2ccc3ncccc3c2)n1` reads less than 100 nM.

In the case of `Cc1cc(NS(=O)(=O)c2ccc3c(c2)CCC(C)(C)O3)n(-c2cccc3ncccc23)n1`, the IC50 was less than 100 nM.
